Legend:
[1] = Visual/microscopic observation of matrix films for drug crystals after preparation and on storage (physical stability); format: physicochemical
Procedure: As used herein, “physical stability” of a drug in a matrix patch includes the lack of recrystallization of the drug in the dried adhesive layer of the patch.
Pressure sensitive adhesive matrix systems described herein were prepared as follows. First, the solids content of a water-based or solvent-based adhesive in liquid form was determined by placing a known weight of liquid in a weighed aluminum dish and evaporating the solvents overnight in a 70° C. convection oven. The content of solid adhesive in the liquid was calculated by dividing the adhesive solid weight after drying by the initial total liquid weight. In some cases, the polyisobutylene (PIB) adhesives were prepared from polyisobutylene solids. The solid PIB was first dissolved in heptane to achieve a final solid content of about 30% by weight, and then the exact solid content was determined as described above. Next, a weighed quantity of adhesive liquid was added to a glass bottle, and the solid adhesive weight was calculated from the known solid fraction of the given adhesive liquid. The drug substance (hydrophilic salt or free drug form) was weighed and added to the adhesive solution in a quantity necessary to achieve a selected dry matrix film composition. The liquid containing the adhesive polymer drug substance was then mixed overnight. […] After mixing, approximately 8 ml of the solution was dispensed on a silanized polyester release liner and film cast using a casting knife with a gap size appropriate to achieve a final dried thickness of approximately 0.05-0.1 mm. The cast was dried in a 70° C. convection oven for 15-30 minutes to yield a dried matrix onto which an 0.08 mm thick polyethylene backing film was laminated. These matrix systems were then used to conduct in vitro skin flux experiments as described below. […]
The systems manufactured with the salt and the water-based adhesive dispersions were stored at room temperature and examined using optical microscopy at 100× magnification for the presence of drug crystals.

[2] = disclosed in U.S. Pat. No. 5,589,498 (Example 2); cited from earlier work
[3] = Dissolution of drug substance in liquid adhesive or solvent during matrix preparation; format: physicochemical
Procedure: Pressure sensitive adhesive matrix systems described herein were prepared as follows. First, the solids content of a water-based or solvent-based adhesive in liquid form was determined by placing a known weight of liquid in a weighed aluminum dish and evaporating the solvents overnight in a 70° C. convection oven. The content of solid adhesive in the liquid was calculated by dividing the adhesive solid weight after drying by the initial total liquid weight. In some cases, the polyisobutylene (PIB) adhesives were prepared from polyisobutylene solids. […] Next, a weighed quantity of adhesive liquid was added to a glass bottle, and the solid adhesive weight was calculated from the known solid fraction of the given adhesive liquid. The drug substance (hydrophilic salt or free drug form) was weighed and added to the adhesive solution in a quantity necessary to achieve a selected dry matrix film composition. The liquid containing the adhesive polymer drug substance was then mixed overnight. […] The cast was dried in a 70° C. convection oven for 15-30 minutes to yield a dried matrix onto which an 0.08 mm thick polyethylene backing film was laminated. These matrix systems were then used to conduct in vitro skin flux experiments as described below.

[4] = In vitro skin flux, modified Franz non-jacketed diffusion cells; format: in vitro ADME, human; settings: Example 6, DURO-TAK 2852 patch, 10% ketorolac on free acid basis, 8% enhancer (propylene glycol/isopropyl myristate)
Procedure: In vitro skin flux studies were conducted using human cadaver epidermal membrane in modified Franz non-jacketed diffusion cells. […] This method involves the exposure of the fullthickness skin to water at 60° C. for 60 seconds. After this period, the epidermal membrane was gently peeled from the dermis and stored in aluminum foil at −5 ° C. Prior to skin permeation experiments, the silanized release liner was removed from the adhesive matrix system, and the adhesive was affixed to the stratum corneum side of the thawed epidermal membrane, which was then cut to an appropriate size and placed between the two halves of the diffusion cell with the stratum corneum facing the donor compartment.
The receiver compartment was filled with water or an aqueous buffer appropriate to maintain sink conditions for the drug. All receiver media included 0.02% (w/w) sodium azide to inhibit bacterial growth. The diffusion cell was placed in a temperature controlled circulating water bath calibrated to maintain the surface temperature of the skin at 32° C. The receiver compartment was constantly stirred by a magnetic stir bar in the receiver compartment agitated by a magnetic stirring module placed under the water bath. At predetermined sampling intervals, the entire contents of the receiver compartment were collected for drug quantitation, and the receiver compartment was filled with fresh receiver solution, taking care to eliminate any air bubbles at the skin/solution interface.
The cumulative amount of drug permeated per unit area at any time t (Qt, μg/cm^2) was determined according to the following equation: [formula]
where Ct (μg/cm^3) is the concentration of the receiver compartment at sample time t (hours), V is the volume of the receiver compartment of the diffusion cell (6.3 cm^3), and A is the diffusional area of the cell (0.64 cm^2).

[5] = Example 5, TSR, equivalent to 1% (w/w) tromethamine salt

Drug crystals in dried matrix [1, 5]: visually free of any crystals
Dissolution in organic solvent system [3, 5]: completely dissolved
Dissolution in enhancer-acrylic adhesive solution ([3]; Example 6, DURO-TAK 2852 with propylene glycol/isopropyl myristate, 10% ketorolac on free acid basis): formed a homogeneous solution
Average cumulative amount of ketorolac released after 24 hours [4]: 583.3±94.6 μg/cm^2
In vitro skin flux of ketorolac ([4]; Mean±SD, n=2/10 skins/diffusion cells): 25.4±4.2 μg/cm^2/h
Structure (SMILES): O=C(c1ccccc1)c1ccc2n1CCC2C(=O)O (centres unmarked) [Ketorolac free acid, ketorolac]
Drug crystals in adhesive matrix/laminate ([1]; Example 6, DURO-TAK 2852 with propylene glycol/isopropyl myristate, 10% ketorolac on free acid basis, visual and microscopic): visibly homogeneous and free from crystals
24 hour cumulative release [2]: 461.7±83.8
Flux [2]: 21.6±3.6 μg/cm^2/h

From patent US6365178B1, “Method of making pressure sensitive adhesive matrix patches for transdermal drug delivery using hydrophilic salts of drugs and hydrophobic pressure sensitive adhesive dispersions” (priority 1996, dated 2002)
